# Laboratory results reported in patent US9512111B2, “N-sulfonylated tetrahydroquinolines and related bicyclic compounds for inhibition of RORγ activity and the treatment of disease” (Lycera Corporation, priority 2010, dated 2016).
# Tests used:
# RORγ-LBD = molecular target: T1, RORγ-LBD (Homo sapiens, UniProt P51449); experiment: RORγ-Ligand Binding Domain TR-FRET Assay; format: biochemical; details: benzoxazines, Table 9
# T1 construct: HIS-tagged RORγ-LBD was recombinantly expressed in SF9 cells; made in house; host or cells: SF9 cells (baculovirus); unpurified lysate
# T1 sequence (P51449 269-508 limits assumed): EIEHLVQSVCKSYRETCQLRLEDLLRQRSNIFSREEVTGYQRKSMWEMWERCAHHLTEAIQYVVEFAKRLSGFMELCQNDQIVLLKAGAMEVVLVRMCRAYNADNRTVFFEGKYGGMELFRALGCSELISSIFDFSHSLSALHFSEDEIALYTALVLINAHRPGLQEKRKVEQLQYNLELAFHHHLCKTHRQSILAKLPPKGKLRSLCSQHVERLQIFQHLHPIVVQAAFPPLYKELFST
# Outline: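 IC50 derived from the 665 nm/615 nm emission ratio after 4 h to overnight incubation. Mixture: Sf9 lysate with His-tagged LBD (~10 nM final, not purified), SRC1-2 LXXLL biotin peptide at 450 nM, 2 nM europium anti-His antibody, 60 nM APC-streptavidin; buffer 25 mM HEPES pH 7.0, 100 mM NaCl, 0.01% Tween, 0.1% BSA.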
# RORγt = molecular target: T2, RORγt (Homo sapiens, UniProt P51449); experiment: RORγ Reporter Assay (GAL4-UAS luciferase reporter in HEK293 cells); format: cell-based; details: benzoxazines, Table 9; HEK cells
# T2 construct: The resulting GAL4-RORγt-LBD fusion construct was placed under the control of a constitutive cytomegalovirus (CMV) promoter; expressed in transfected cells; host or cells: HEK293
# T2 sequence (P51449 269-508 limits assumed): T1 sequence (P51449 269-508 limits assumed)
# Description: Inhibition of RORγt in cells was determined using a GAL4-UAS reporter system in HEK293 cells employing a luciferase readout. The RORγt DNA binding domain (DBD) was replaced with the heterologous yeast GAL4 DBD using standard recombinant DNA methods. The resulting GAL4-RORγt-LBD fusion construct was placed under the control of a constitutive cytomegalovirus (CMV) promoter by cloning it into the CMV-driven mammalian expression vector pcDNA3.1+− (Promega Corporation, Madison, Wis.).
# A transcriptional reporter expression construct was used to monitor GAL4-RORγ activity, which contained five copies of the GAL4 binding site enhancer (UAS) controlling expression of a firefly luciferase reporter. This construct, pGL4.31, is commercially available from Promega Corporation, Madison Wis. Both expression constructs were transfected in bulk into HEK-293 cells using standard lipid-based transfection techniques, which allowed the GAL4 RORγ-LBD fusion protein to drive expression of the luciferase reporter. Control transfections were performed with an empty pCDN3.1+ vector.
# The next day, cells were plated into 384 well plates, test compound was added, and the plates were incubated overnight. […] Promega firefly assays kits were used to stabilize the luciferase signal, and the intensity of the luciferase signal was measured using an EnVision Multilabel Plate Reader (Perkin Elmer, Waltham, Mass.).
# HEK 293 cells are transfected with GAL4-NR construct (CMV:NR-LBD in pcDNA3.1neo) and the pGL4.31 GAL4-luciferase reporter construct (Promega). For a background control, use empty pcDNA3.1neo and pGL4.31. Transfection protocol is for a single T75 flask performed with Minis Trans-It 293 reagent. A 60 μL aliquot of Trans-IT reagent at room temperature is added drop wise to 1.5 mL of Optimem (Invitrogen). The resulting solution is mixed by inversion and incubated for 5-20 minutes at room temperature. This reagent mixture is added to 10 μg of DNA (5 μg of each expression vector used at a concentration of 1 mg/mL). The solution is mixed by inversion and incubated at room temperature for 20 minutes.
# While the Trans-IT reagent and DNA are incubating, harvest HEK-293 cells. Remove media from flasks via aspiration and add enough TrypLE Express (stable Trypsin-like reagent, Invitrogen) to cover the bottom of the flask. The mixture is incubated at room temperature until the cells are visibly loose in the flask (approximately 2-5 minutes). Add an equal volume of complete growth media, and then pipette to achieve a single cell suspension. Spin down 1×10^7 cells and re-suspend the cells in 10 mL of complete growth media (DMEM high glucose/10% dialyzed FBS/pen/strep; Invitrogen). The cells and transfection mixture are added to one T75 flask. The contents of the T75 flax are mixed and incubated overnight at 37° C. and 5% CO2.
# After 16-24 hours, cells are harvested and plated for test compound screening. Cells may be harvested as described above. Next, cells are counted and an appropriate number of cells are spun down. Then, cells are aspirated and re-suspended in complete growth media at a concentration of 0.5×10^6 cells/mL to provide a cell suspension. Plate 20 μL of the cell suspension into a white, tissue-culture treated 384 well plate. (10,000 cells/well).
# A 10 mM stock solution of test compound in dimethylsulfoxide (DMSO) was diluted to 500× the final test concentration in DMSO, then diluted to 5× the final test concentration with complete growth medium to provide the Test Compound Solution. The concentration of DMSO in the Test Compound Solution was […]. A 5 μL aliquot of Test Compound Solution was added to each test well in the 384 well plate previously plated with the cell suspension. Next, plates are spun briefly and incubated overnight at 37° C. and 5% CO2.
# After 16-24 hours, the luciferase assay is performed. Plates and luciferase reagent (e.g. One-Glo® or Dual Glo®; Promega, Madison, Wis.) are brought to room temperature.
IC50 (RORγ-LBD),IC50 (RORγt),SMILES
< 15 µM,< 15 µM,COCC1CN(S(=O)(=O)c2ccc(F)cc2)c2cc(NC(=O)c3c(F)cccc3Cl)ccc2O1 (centres unmarked) [VI-119]
< 15 µM,< 15 µM,O=C(Nc1ccc2c(c1)N(S(=O)(=O)c1ccc(F)cc1)C[C@H](CO)O2)c1c(F)cccc1Cl [VI-120]
< 15 µM,< 15 µM,CC(C)OCC1CN(S(=O)(=O)c2ccc(F)cc2)c2cc(NC(=O)c3c(F)cccc3Cl)ccc2O1 (centres unmarked) [VI-121]
< 15 µM,< 15 µM,O=C(Nc1ccc2c(c1)N(S(=O)(=O)c1ccc(F)cc1)C[C@@H](CO)O2)c1c(Cl)cccc1C(F)(F)F [VI-122]
< 15 µM,< 15 µM,CC(C)OCC1CN(S(=O)(=O)c2ccc(F)cc2)c2cc(NC(=O)c3c(Cl)cccc3C(F)(F)F)ccc2O1 (centres unmarked) [VI-123]
< 15 µM,< 15 µM,CC1(C)CN(S(=O)(=O)c2ccc(F)cc2)c2cc(NC(=O)c3c(F)cccc3C(F)(F)F)ccc2O1 [VI-124]
< 15 µM,< 15 µM,CC1(C)CN(S(=O)(=O)c2ccc(F)cc2)c2cc(NC(=O)c3c(Cl)cccc3Cl)ccc2O1 [VI-125]
< 15 µM,< 15 µM,O=C(Nc1ccc2c(c1)N(S(=O)(=O)c1ccc(F)cc1)CCO2)c1c(Cl)cccc1Cl [VI-129]

# The next lines start with the compound.
SMILES,IC50 (RORγ-LBD),IC50 (RORγt)
CCOCC1CN(S(=O)(=O)c2cccc(C#N)c2)c2cc(NC(=O)c3c(F)cccc3Cl)ccc2O1 (centres unmarked) [VI-100],< 15 µM,< 15 µM
COCC1CN(S(=O)(=O)c2cccc(C#N)c2)c2cc(NC(=O)c3c(F)cccc3Cl)ccc2O1 (centres unmarked) [VI-101],< 15 µM,< 15 µM
CCOCC1CN(S(=O)(=O)c2cccc(C#N)c2)c2cc(NC(=O)c3c(F)cccc3F)ccc2O1 (centres unmarked) [VI-102],< 15 µM,< 15 µM
COCC1CN(S(=O)(=O)c2cccc(C#N)c2)c2cc(NC(=O)c3c(F)cccc3F)ccc2O1 (centres unmarked) [VI-103],< 15 µM,< 15 µM
COCC1CN(S(=O)(=O)c2ccc(F)cc2)c2cc(NC(=O)c3c(Cl)cccc3C(F)(F)F)ccc2O1 (centres unmarked) [VI-104],< 15 µM,< 15 µM
COCC1CN(S(=O)(=O)c2ccc(F)cc2)c2cc(NC(=O)c3c(Cl)cccc3Cl)ccc2O1 (centres unmarked) [VI-105],< 15 µM,< 15 µM
O=C(Nc1ccc2c(c1)N(S(=O)(=O)c1ccc(F)cc1)C[C@@H](CO)O2)c1c(Cl)cccc1Cl [VI-106],< 15 µM,< 15 µM
O=C(Nc1ccc2c(c1)N(S(=O)(=O)c1ccc(F)cc1)CC(C(F)(F)F)O2)c1c(Cl)cccc1Cl (centres unmarked) [VI-107],< 15 µM,< 15 µM
CCOCC1CN(S(=O)(=O)c2ccc(F)cc2)c2cc(NC(=O)c3c(Cl)cccc3Cl)ccc2O1 (centres unmarked) [VI-108],< 15 µM,< 15 µM
CC(C)OCC1CN(S(=O)(=O)c2ccc(F)cc2)c2cc(NC(=O)c3c(Cl)cccc3Cl)ccc2O1 (centres unmarked) [VI-109],< 15 µM,< 15 µM
O=C(Nc1ccc2c(c1)N(S(=O)(=O)c1ccc(F)cc1)C[C@@H](CO)O2)c1c(F)cccc1F [VI-110],< 15 µM,< 15 µM
CCOCC1CN(S(=O)(=O)c2ccc(F)cc2)c2cc(NC(=O)c3c(F)cccc3F)ccc2O1 (centres unmarked) [VI-112],< 15 µM,< 15 µM
COCC1CN(S(=O)(=O)c2ccc(F)cc2)c2cc(NC(=O)c3c(F)cccc3F)ccc2O1 (centres unmarked) [VI-113],< 15 µM,< 15 µM
O=C(Nc1ccc2c(c1)N(S(=O)(=O)c1ccc(F)cc1)C[C@H](CO)O2)c1c(F)cccc1F [VI-114],< 15 µM,< 15 µM
CC(C)OCC1CN(S(=O)(=O)c2ccc(F)cc2)c2cc(NC(=O)c3c(F)cccc3F)ccc2O1 (centres unmarked) [VI-115],< 15 µM,< 15 µM
O=C(Nc1ccc2c(c1)N(S(=O)(=O)c1ccc(F)cc1)C[C@@H](CO)O2)c1c(F)cccc1Cl [VI-116],< 15 µM,< 15 µM
CCOCC1CN(S(=O)(=O)c2ccc(F)cc2)c2cc(NC(=O)c3c(F)cccc3Cl)ccc2O1 (centres unmarked) [VI-118],< 15 µM,< 15 µM
